{"source": "patent US20260041744A1", "about": "“Methods for Treating Pompe Disease” (Amicus Therapeutics, Inc., priority 2022, published 2026)", "key": {"adult subjects with LOPD [1]": {"test_system": "adult subjects with LOPD", "experiment": "Study ATB200-07 (OLE): MMT lower extremity", "description": "(§1) Analysis populations presented in this summary are 1) the OLE-ES Population (all subjects who satisfied the eligibility requirements (based on the inclusion and exclusion criteria) and entered Study ATB200-07 and 2) the OLE-FAS Population (all subjects who entered the OLE Study ATB200-07 who had both a valid ATB200-07 baseline and at least 1 post-baseline assessment for at least 1 of the 6 main efficacy endpoints [6MWD, sitting % predicted FVC, MMT-lower extremities, PROMIS-Physical Function, PROMIS-Fatigue, and GSGC])."}, "adult subjects with LOPD [2]": {"test_system": "adult subjects with LOPD", "experiment": "Study ATB200-07 (OLE): GSGC", "format": "in vivo, human", "description": "as §1"}, "adult subjects with LOPD [3]": {"test_system": "adult subjects with LOPD", "experiment": "Study ATB200-07 (OLE): PROMIS-Physical Function", "format": "in vivo, human", "description": "as §1"}, "[4]": {"test_system": "LOPD population (PROPEL target population)", "experiment": "Multi-level network meta-regression (ML-NMR) indirect treatment comparison, 6MWD and FVC change from baseline at week 52", "set-up": "species or system human", "settings": "base-case scenario", "procedure": "Using patient-level data from the PROPEL randomized clinical trial (RCT) plus aggregate published data from other RCTs, Phase I/II and open label extension trials, a multi-level network meta-regression was conducted, adjusting for various baseline covariates including previous ERT duration. The base case scenario had covariates resembling the PROPEL population (naïve and ERT-experienced) and analyzed 6MWD and FVC change from baseline at 52 weeks.\nAn ITC providing relative effect estimates in the target population of interest (ie an LOPD population including a mix of ERT-naïve and ERT-experienced subjects as in the pivotal Phase III trial comparing Cipa+mig with Alglu [PROPEL]) was performed.\nA systematic literature review (SLR) was conducted to identify relevant published clinical studies of ERTs in LOPD. Outcomes assessed were change from baseline in 6-minute walking distance (6MWD) (m) and in forced vital capacity (FVC; % predicted) at week 52, acknowledged by clinicians, HTA agencies and payers as key LOPD trial endpoints. Aggregate results on 6MWD and FVC change from baseline over time and baseline characteristics (age, gender, ethnicity, previous ERT duration, baseline 6MWD and baseline FVC) were extracted from included studies.\nA multi-level network meta regression (ML-NMR) was performed, which is an extension of standard network meta-analyses (NMAs) that take into account the effect of study-level covariates, and that can be applied to any connected network with any mixture of individual patient-level data (IPD) and aggregate data. ML-NMR is an accepted method by the National Institute for Health and Care Excellence (NICE) in support of cost effectiveness analysis. Single-arm study results were matched to appropriate comparator arms of the comparative studies to allow for inclusion into the network. Mean treatment differences with associated 95% credible intervals (CrIs) were calculated for 6MWD and FVC change from baseline at week 52.\nA base-case scenario was evaluated in which all covariates were set to the target population of the PROPEL trial. To study the impact of previous ERT duration on relative effects, ERT duration value was varied, keeping remaining covariate values as in the base-case scenario. A sensitivity analysis was performed by excluding all matched single-arm evidence from the network to assess its impact on the results.\nBoth fixed effects (FE) and random effects (RE) ML-NMR models were applied and the deviance information criteria (DIC) was used to assess goodness-of-fit of the models and to identify the appropriate model (FE or RE model) for the data. Models were implemented in a Bayesian framework using Stan with help of the R package multinma.\nIn the base-case scenario, the covariates were set to the baseline characteristics of the target population (ie the PROPEL trial; see Table 20), and time was set to 52 weeks."}, "[5]": {"test_system": "adult subjects with late-onset Pompe disease (LOPD)", "experiment": "Study ATB200-03 (PROPEL): serum creatine kinase (CK)", "format": "in vivo, human", "settings": "combined study population"}, "adult subjects with LOPD [6]": {"test_system": "adult subjects with LOPD", "experiment": "Study ATB200-07 (OLE): Hex4", "protocol": "The Phase III double-blind PROPEL study (NCT03729362; ATB200-03) described in Examples 9 and 10 above compared the investigational two-component therapy cipaglucosidase alfa/miglustat (cipa/mig) with alglucosidase alfa/placebo (alglu) in adults with late-onset Pompe disease (LOPD) over 52 weeks. The ongoing open-label extension (OLE) of PROPEL (NCT04138277; ATB200-07) evaluates long-term safety and efficacy of cipa/mig. Outcomes include 6 minute walk distance (6MWD), forced vital capacity (FVC), creatine kinase (CK) and hexose tetrasaccharide (Hex4) levels and safety. Data are reported as change from the PROPEL baseline to OLE week 52 (104 weeks after the PROPEL baseline)."}, "[7]": {"test_system": "adult subjects with late-onset Pompe disease (LOPD)", "experiment": "Study ATB200-03 (PROPEL): PROMIS-Fatigue", "format": "in vivo, human", "settings": "for CHG to Week 52 in PROMIS-Fatigue total score, LS Mean: MMRM, actual time point of assessments, decrease indicates improvement; for PROMIS-Fatigue Short Form 8a total score CHG, LS means (SE): Week 52, ANCOVA", "procedure": "The test for the primary endpoint was conducted first at the 1-sided 0.025 significance level, and if significant, the ordered key secondary endpoints were similarly tested at the same significance level. The statistical significance of the key secondary endpoints was interpreted following a hierarchical testing order, each at the 1-sided alpha level of 0.025. […] Primary analyses of efficacy were performed using the mixed-effect model for repeated measures (MMRM) for 6MWD in Intent-to-treat Observed Population (ITT) that includes all available, observed data without any missing data imputation (ITT-OBS) and analysis of covariance (ANCOVA) for all other endpoints in the Intent-to-Treat-Last Observation Carried Forward (ITT-LOCF) Population. A nonparametric randomization based ANCOVA was specified as the first sensitivity analysis for 6MWD and FVC. […] For the purposes of data presentation in this document, 2-sided p-values are reported hereafter, except as otherwise noted."}, "[8]": {"test_system": "adult subjects with late-onset Pompe disease (LOPD)", "experiment": "Study ATB200-03: summary across primary, secondary and biomarker endpoints (incl. SVC, FVC supine, MIP, MEP, SNIP, MMT upper/overall, QMT, TUG)", "settings": "ITT excluding outlier subject", "description": "• overall physical wellbeing • effort of breathing • muscle strength • muscle function • ability to move around • activities of daily living • energy level • level of muscular pain • actual value of the subject's functional status (improving, stable, or declining) at Week 52, as measured by the Physician's Global Impression of Change • change from baseline to Week 52 in the following measures of pulmonary function, as follows: • sitting FVC (% predicted) • MIP (cmH2O) • MIP (% predicted) • MEP (cmH2O) • MEP (% predicted) • SNIP (cmH2O)"}, "adult subjects with LOPD [9]": {"test_system": "adult subjects with LOPD", "experiment": "Study ATB200-07 (OLE of PROPEL): 6MWD and % predicted 6MWD", "format": "in vivo, human", "text": "The study doses and schedule are maintained from Study ATB200-03.\nEfficacy data are presented in this summary as change from the baseline of Study ATB200-03 (OLE-ES Population)."}, "adult subjects with LOPD [10]": {"test_system": "adult subjects with LOPD", "experiment": "Study ATB200-07 (OLE): PROMIS-Fatigue", "format": "in vivo, human", "description": "as §1"}, "[11]": {"settings": "Study ATB200-03 baseline, OLE-ES Population excluding Subject 4005-2511"}, "[12]": {"settings": "change from ATB200-03 baseline at Week 52, OLE-ES excluding Subject 4005-2511"}, "[13]": {"settings": "change from ATB200-03 baseline at Week 104, alglucosidase alfa/placebo group switched to cipaglucosidase alfa/miglustat at Week 52, OLE-ES excluding Subject 4005-2511"}, "[14]": {"settings": "change from ATB200-03 baseline at Week 52, decrease indicates improvement, OLE-ES excluding Subject 4005-2511"}, "[15]": {"settings": "Week 52-LOCF, ERT-experienced Population"}, "[16]": {"settings": "Week 52-LOCF, ERT-naïve Population excluding Subject 4005-2511"}, "[17]": {"settings": "Week 52-LOCF, ITT excluding Subject 4005-2511"}}, "data": [{"substance": "alglucosidase alfa [reference compound]", "values": [{"measurement": "MMT (lower extremity score), mean BSL", "setting": "adult subjects with LOPD [1]; [11]", "result": 27.8}, {"measurement": "MMT (lower extremity score), mean 52-wk CFB", "setting": "adult subjects with LOPD [1]; [12]", "result": 0.9}, {"measurement": "MMT (lower extremity score), mean 104-wk CFB", "setting": "adult subjects with LOPD [1]; [13]", "result": 1.1}, {"measurement": "GSGC, mean BSL", "setting": "adult subjects with LOPD [2]; [11]", "result": 14.3}, {"measurement": "GSGC, mean 52-wk CFB", "setting": "adult subjects with LOPD [2]; [14]", "result": 0.9}, {"measurement": "GSGC, mean 104-wk CFB", "setting": "adult subjects with LOPD [2]; [13]", "result": 0.3}, {"measurement": "PROMIS-Physical Function, mean BSL", "setting": "adult subjects with LOPD [3]; [11]", "result": 67.9}, {"measurement": "PROMIS-Physical Function, mean 52-wk CFB", "setting": "adult subjects with LOPD [3]; [12]", "result": 0.3}, {"measurement": "PROMIS-Physical Function, mean 104-wk CFB", "setting": "adult subjects with LOPD [3]; [13]", "result": "−0.4"}, {"measurement": "relative effect, sensitivity analysis (RCT data only), 6MWT and FVC", "setting": "[4]", "result": "numerically favourable versus placebo"}, {"measurement": "mean change in CK after 52 weeks", "setting": "[5]", "result": "+15.6%"}, {"measurement": "Hex4, mean BSL", "setting": "adult subjects with LOPD [6]; [11]", "result": 7.0}, {"measurement": "Hex4, mean 52-wk CFB", "setting": "adult subjects with LOPD [6]; [12]", "result": 1.6}, {"measurement": "Hex4, mean 104-wk CFB", "setting": "adult subjects with LOPD [6]; [13]", "result": "−2.7"}, {"measurement": "PROMIS-Fatigue Short Form 8a Total Score Absolute Value, Median", "setting": "[7]; Baseline, ITT, ERT-naïve Population excluding Subject 4005-2511", "result": 24.00}, {"measurement": "PROMIS-Fatigue Short Form 8a Total Score Absolute Value, Mean", "setting": "[7]; Baseline, ITT, ERT-naïve Population excluding Subject 4005-2511, score 8 to 40, lower = less fatigue", "result": 24.13}, {"measurement": "mean (SD) change in PROMIS-Fatigue total score from baseline to Week 52", "setting": "[7]; ERT-experienced Population", "result": "−0.5 (5.72)"}, {"measurement": "mean (SD) change in PROMIS-Fatigue total score from baseline to Week 52", "setting": "[7]; ERT-naïve excluding Subject 4005-2511", "result": "−5.4 (6.61)"}, {"measurement": "Change in PROMIS-Fatigue total score baseline to Week 52, LS means (SE) from ANCOVA", "setting": "[7]; ITT-LOCF, ERT-naïve Population excluding Subject 4005-2511", "result": "−6.28 (2.757)"}, {"measurement": "CHG to Week 52 in PROMIS-Fatigue total score, LS Mean", "setting": "[7]; ITT-OBS excluding Subject 4005-2511 (overall)", "result": "−1.7"}, {"measurement": "CHG to Week 52 in PROMIS-Fatigue total score, LS Mean", "setting": "[7]; ITT-OBS excluding Subject 4005-2511, ERT-naïve Subjects", "result": "−4.9"}, {"measurement": "CHG to Week 52 in PROMIS-Fatigue total score, LS Mean", "setting": "[7]; ITT-OBS, ERT-experienced Subjects", "result": "−0.7"}, {"measurement": "PROMIS-Fatigue Short Form 8a Total Score Absolute Value, Mean", "setting": "[7]; [15]", "result": 19.87}, {"measurement": "PROMIS-Fatigue Short Form 8a Total Score Absolute Value, Median", "setting": "[7]; [15]", "result": 18.00}, {"measurement": "PROMIS-Fatigue Short Form 8a Total Score CHG, Mean", "setting": "[7]; [15]", "result": "−0.50"}, {"measurement": "PROMIS-Fatigue Short Form 8a total score CHG, Median", "setting": "[7]; [15]", "result": 0.50}, {"measurement": "PROMIS-Fatigue Short Form 8a Total Score Absolute Value, Mean", "setting": "[7]; [16]", "result": 16.43}, {"measurement": "PROMIS-Fatigue Short Form 8a Total Score Absolute Value, Median", "setting": "[7]; [16]", "result": 15.00}, {"measurement": "PROMIS-Fatigue Short Form 8a Total Score CHG (change from baseline), Mean", "setting": "[7]; [16]", "result": "−7.70"}, {"measurement": "PROMIS-Fatigue Short Form 8a Total Score CHG (change from baseline), Median", "setting": "[7]; [16]", "result": "−6.90"}, {"measurement": "PROMIS-Fatigue Short Form 8a Total Score Absolute Value, Median", "setting": "[7]; [17]", "result": 18.00}, {"measurement": "PROMIS-Fatigue Short Form 8a total score Absolute Value, Mean (SD)", "setting": "[7]; [17]", "result": "19.41 (6.735)"}, {"measurement": "PROMIS-Fatigue Short Form 8a total score CHG, Mean (SD)", "setting": "[7]; [17]", "result": "−1.67 (6.623)"}, {"measurement": "PROMIS-Fatigue Short Form 8a total score CHG, Median", "setting": "[7]; [17]", "result": "−1.00"}, {"measurement": "PROMIS-Fatigue Short Form 8a total score CHG, LS means (SE)", "setting": "[7]; ITT-LOCF excluding Subject 4005-2511", "result": "−1.94 (0.901)"}, {"measurement": "PROMIS-Fatigue Short Form 8a total score CHG, LS means (SE)", "setting": "[7]; ITT-LOCF, ERT-experienced Population", "result": "−0.79 (0.953)"}, {"measurement": "mean (SD) change in PROMIS-Fatigue total score from baseline to Week 52", "setting": "[7]; overall population", "result": "-1.9 (0.90)"}, {"measurement": "parameters with statistically significant decline from baseline at Week 52", "setting": "[8]", "result": "GSGC, FVC sitting, FVC supine, SVC sitting, and CK"}, {"measurement": "parameters with statistically significant improvement from baseline at Week 52", "setting": "[8]", "result": "not observed for any parameters"}, {"measurement": "6MWD, mean BSL", "setting": "adult subjects with LOPD [9]; [11]", "result": 351.7, "unit": "m"}, {"measurement": "6MWD, mean 52-wk CFB", "setting": "adult subjects with LOPD [9]; change from ATB200-03 baseline at Week 52 (= ATB200-07 baseline), OLE-ES excluding Subject 4005-2511", "result": 8.0, "unit": "m"}, {"measurement": "6MWD, mean 104-wk CFB", "setting": "adult subjects with LOPD [9]; [13]", "result": 3.3, "unit": "m"}, {"measurement": "PROMIS-Fatigue, mean BSL", "setting": "adult subjects with LOPD [10]; [11]", "result": 21.2}, {"measurement": "PROMIS-Fatigue, mean 52-wk CFB", "setting": "adult subjects with LOPD [10]; [14]", "result": "−1.7"}, {"measurement": "PROMIS-Fatigue, mean 104-wk CFB", "setting": "adult subjects with LOPD [10]; [13]", "result": "−0.1"}]}]}
